For 23 compounds, Kd results are on record in patent publication US20240190849A1, “AMINOPYRIMIDINE COMPOUNDS AND METHODS OF THEIR USE” (TYRA BIOSCIENCES, INC., priority 2021, published 2024).

What is called Kd is the free concentration of one partner at which half of the binding sites on the other are occupied at equilibrium, for simple one-to-one binding. A lower Kd goes with higher affinity.

Common to all, as to conditions: FGFR binding data
For one assay, the target named is T1, FGFR2 (Homo sapiens, UniProt P21802).
T1 construct: made in house; host or cells: E. coli derived from BL21, infected with T7 phage
T1 sequence (P21802 22-821): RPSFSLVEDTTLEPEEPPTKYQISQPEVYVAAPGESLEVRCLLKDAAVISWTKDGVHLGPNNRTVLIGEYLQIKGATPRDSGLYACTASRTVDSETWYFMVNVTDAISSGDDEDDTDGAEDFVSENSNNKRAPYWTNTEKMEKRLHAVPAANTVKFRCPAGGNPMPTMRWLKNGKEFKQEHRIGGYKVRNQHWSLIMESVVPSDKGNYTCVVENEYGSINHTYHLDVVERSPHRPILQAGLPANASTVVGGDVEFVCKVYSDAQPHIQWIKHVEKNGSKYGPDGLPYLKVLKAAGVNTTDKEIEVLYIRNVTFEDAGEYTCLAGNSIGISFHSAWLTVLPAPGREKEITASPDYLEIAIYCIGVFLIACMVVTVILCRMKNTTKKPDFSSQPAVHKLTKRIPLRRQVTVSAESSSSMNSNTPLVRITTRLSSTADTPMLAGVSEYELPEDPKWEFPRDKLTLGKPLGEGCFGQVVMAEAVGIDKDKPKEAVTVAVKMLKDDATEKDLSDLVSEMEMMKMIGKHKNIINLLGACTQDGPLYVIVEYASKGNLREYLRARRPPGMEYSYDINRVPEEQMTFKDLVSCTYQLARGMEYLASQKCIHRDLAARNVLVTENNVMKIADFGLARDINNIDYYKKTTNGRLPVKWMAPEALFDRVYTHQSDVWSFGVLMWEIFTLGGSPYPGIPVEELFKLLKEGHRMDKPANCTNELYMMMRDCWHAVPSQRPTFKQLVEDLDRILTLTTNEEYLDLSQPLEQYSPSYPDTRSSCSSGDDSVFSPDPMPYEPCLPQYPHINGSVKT
Nature of the assay: Kinase binding assay (kinase-tagged T7 phage, affinity beads, qPCR readout), FGFR2. In short, it runs like this: (§1)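 Competition binding: kinases displaced from biotinylated-ligand streptavidin beads by test compound in binding buffer (20% SeaBlock, 0.17×PBS, 0.05% Tween 20, 6 mM DTT), 1 hour at room temperature, 0.9% DMSO. Bead-bound kinase eluted with 0.5 μM free ligand, quantified by qPCR. Kd from 11-point 3-fold dilutions, Hill slope fixed at −1.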
In general terms: In qPCR the cycle at which signal appears reflects the starting amount.

In a further assay the target is T2, FGFR3 (Homo sapiens, UniProt P22607).
T2 construct: made in house; host or cells: E. coli derived from BL21, infected with T7 phage
T2 sequence (P22607 23-806): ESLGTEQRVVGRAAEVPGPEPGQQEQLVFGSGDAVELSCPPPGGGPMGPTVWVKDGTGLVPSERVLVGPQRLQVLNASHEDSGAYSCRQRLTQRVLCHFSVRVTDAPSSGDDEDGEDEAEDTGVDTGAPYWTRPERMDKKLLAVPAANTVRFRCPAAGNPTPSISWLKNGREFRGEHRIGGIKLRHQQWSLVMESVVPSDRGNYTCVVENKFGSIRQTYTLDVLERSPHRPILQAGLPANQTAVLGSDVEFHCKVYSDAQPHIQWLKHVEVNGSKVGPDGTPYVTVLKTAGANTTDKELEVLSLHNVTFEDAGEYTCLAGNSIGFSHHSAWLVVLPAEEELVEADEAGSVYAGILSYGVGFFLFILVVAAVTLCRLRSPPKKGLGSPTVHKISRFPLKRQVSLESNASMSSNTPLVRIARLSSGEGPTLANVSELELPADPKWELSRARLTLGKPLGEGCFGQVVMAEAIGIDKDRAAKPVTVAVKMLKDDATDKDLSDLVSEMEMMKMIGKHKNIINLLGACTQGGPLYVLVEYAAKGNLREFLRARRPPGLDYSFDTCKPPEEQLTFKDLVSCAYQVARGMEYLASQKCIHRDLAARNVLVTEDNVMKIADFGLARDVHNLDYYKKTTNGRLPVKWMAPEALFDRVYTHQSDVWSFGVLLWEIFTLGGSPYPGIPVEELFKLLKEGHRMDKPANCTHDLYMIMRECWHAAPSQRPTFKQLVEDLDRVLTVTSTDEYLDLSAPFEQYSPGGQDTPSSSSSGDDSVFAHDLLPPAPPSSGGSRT
Nature of the assay: Kinase binding assay (kinase-tagged T7 phage, affinity beads, qPCR readout), FGFR3. In short, it runs like this: as §1

For a further assay, the target named is T3, FGFR1 (Homo sapiens, UniProt P11362).
T3 construct: made in house; host or cells: E. coli derived from BL21, infected with T7 phage
T3 sequence (P11362 22-822): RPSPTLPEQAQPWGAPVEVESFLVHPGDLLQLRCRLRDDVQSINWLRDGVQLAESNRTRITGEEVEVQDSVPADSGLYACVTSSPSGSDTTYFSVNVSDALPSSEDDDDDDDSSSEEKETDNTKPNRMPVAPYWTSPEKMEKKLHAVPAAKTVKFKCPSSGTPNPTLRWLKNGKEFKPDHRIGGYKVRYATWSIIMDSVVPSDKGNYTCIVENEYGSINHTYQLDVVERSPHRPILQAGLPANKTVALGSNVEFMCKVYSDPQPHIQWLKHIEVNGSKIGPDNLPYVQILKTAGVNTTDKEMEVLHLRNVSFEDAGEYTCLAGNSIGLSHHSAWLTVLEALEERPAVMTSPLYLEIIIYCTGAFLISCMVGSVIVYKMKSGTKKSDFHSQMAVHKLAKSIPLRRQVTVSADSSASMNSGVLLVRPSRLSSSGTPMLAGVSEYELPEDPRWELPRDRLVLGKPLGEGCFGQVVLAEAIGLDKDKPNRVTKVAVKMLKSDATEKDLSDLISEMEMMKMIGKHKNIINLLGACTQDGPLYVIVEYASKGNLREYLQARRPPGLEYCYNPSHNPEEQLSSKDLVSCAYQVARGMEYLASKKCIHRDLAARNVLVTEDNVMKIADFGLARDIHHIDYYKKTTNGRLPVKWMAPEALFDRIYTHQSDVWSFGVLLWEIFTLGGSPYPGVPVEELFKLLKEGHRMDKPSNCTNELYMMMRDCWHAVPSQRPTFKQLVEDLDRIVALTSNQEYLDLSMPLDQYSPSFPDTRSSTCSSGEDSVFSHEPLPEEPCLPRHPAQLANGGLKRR
Nature of the assay: Kinase binding assay (kinase-tagged T7 phage, affinity beads, qPCR readout), FGFR1. In short, it runs like this:
as §1

The next assay deals with T4, FGFR3 (V555M) (Homo sapiens, UniProt P22607, V555M).
T4 construct: made in house; host or cells: E. coli derived from BL21, infected with T7 phage
T4 sequence (P22607 23-806 V555M): as the sequence (P22607 23-806) above, with V533M counted along it
Nature of the assay: Kinase binding assay (kinase-tagged T7 phage, affinity beads, qPCR readout), FGFR3 (V555M). The essentials: as §1

Each structure is given as a SMILES string. Bounds are passed on as bounds.

Turning to `C=CC(=O)Nc1ccc2c(-c3ccnc(Nc4cn(C)nc4C)n3)cn(C)c2c1` [Example 172, N-[3-[2-[(1,3-dimethylpyrazol-4-yl)amino]pyrimidin-4-yl]-1-methyl-indol-6-yl]prop-2-enamide], the dissociation constant (Kd) lay in the range of 0.1 to 100 nM at FGFR2, 0.1 to 100 nM on FGFR3, 250 to 1000 nM on FGFR1 and 0.1 to 100 nM at FGFR3 (V555M).
`C=CC(=O)Nc1ccc2c(-c3ccnc(Nc4cn(CC)nc4C)n3)cn(C)c2c1` [Example 173, N-[3-[2-[(1-ethyl-3-methyl-pyrazol-4-yl)amino]pyrimidin-4-yl]-1-methyl-indol-6-yl]prop-2-enamide]: the Kd at FGFR2 fell in the range of 100 to 250 nM; at FGFR3 it was 0.1 to 100 nM; on FGFR1, 250 to 1000 nM; at FGFR3 (V555M) it was 0.1 to 100 nM.
Turning to `C=CC(=O)Nc1ccc2c(-c3nc(Nc4cn(CC)nc4C)ncc3F)cn(C)c2c1` [Example 177, N-[3-[2-[(1-ethyl-3-methyl-pyrazol-4-yl)amino]-5-fluoro-pyrimidin-4-yl]-1-methyl-indol-6-yl]prop-2-enamide], the Kd lay in the range of 0.1 to 100 nM at FGFR2, 0.1 to 100 nM at FGFR3, 250 to 1000 nM on FGFR1 and 0.1 to 100 nM at FGFR3 (V555M).
For `Cc1nn(C)cc1Nc1ncc(F)c(-n2cc(C)c3cc(NC(=O)/C=C/CN(C)C)cnc32)n1` [Example 179, (E)-4-(dimethylamino)-N-[1-[2-[(1,3-dimethylpyrazol-4-yl)amino]-5-fluoro-pyrimidin-4-yl]-3-methyl-pyrrolo[2,3-b]pyridin-5-yl]but-2-enamide], the dissociation constant Kd fell in the range of 100 to 250 nM at FGFR2, 100 to 250 nM at FGFR3, 250 to 1000 nM at FGFR1 and 100 to 250 nM at FGFR3 (V555M).
On to `Cc1cn(-c2nc(Nc3cnn(C[C@@H](C)O)c3)ncc2F)c2ncc(NC(=O)/C=C/CN(C)C)cc12` [Example 191, (E)-4-(dimethylamino)-N-[1-[5-fluoro-2-[[1-[(2R)-2-hydroxypropyl]pyrazol-4-yl]amino]pyrimidin-4-yl]-3-methyl-pyrrolo[2,3-b]pyridin-5-yl]but-2-enamide], for which the Kd on FGFR2, at FGFR3, on FGFR1 and on FGFR3 (V555M) was 0.1 to 100 nM each time.
Turning to `C=CC(=O)Nc1ccc2c(c1)c(C)cn2-c1nc(Nc2cnn(CCO)c2C)ncc1F` [Example 192, N-[1-[5-fluoro-2-[[1-(2-hydroxyethyl)-5-methyl-pyrazol-4-yl]amino]pyrimidin-4-yl]-3-methyl-indol-5-yl]prop-2-enamide], the Kd at FGFR2, at FGFR3, on FGFR1 and at FGFR3 (V555M) was 0.1 to 100 nM in each case.
In the case of `C=CC(=O)Nc1ccc2c(c1)c(C)cn2-c1nc(Nc2cnn(CCOCC)c2)ncc1F` [Example 193], the Kd on FGFR2, on FGFR3, on FGFR1 and on FGFR3 (V555M) was 0.1 to 100 nM in each case.
For `Cc1cn(-c2nc(Nc3cnn(C[C@H](C)O)c3)ncc2F)c2ncc(NC(=O)/C=C/CN(C)C)cc12` [Example 196, (E)-4-(dimethylamino)-N-[1-[5-fluoro-2-[[1-[(2S)-2-hydroxypropyl]pyrazol-4-yl]amino]pyrimidin-4-yl]-3-methyl-pyrrolo[2,3-b]pyridin-5-yl]but-2-enamide], the Kd at FGFR2, on FGFR3, on FGFR1 and on FGFR3 (V555M) was 0.1 to 100 nM throughout.
For `Cc1cn(-c2nc(Nc3cnn(C[C@@H](C)O)c3)ncc2F)c2ncc(NC(=O)/C=C/CN3CCOCC3)cc12` [Example 197, (E)-N-[1-[5-fluoro-2-[[1-[(2R)-2-hydroxypropyl]pyrazol-4-yl]amino]pyrimidin-4-yl]-3-methyl-pyrrolo[2,3-b]pyridin-5-yl]-4-morpholino-but-2-enamide], the Kd at FGFR2 was 250 to 1000 nM; on FGFR3, 100 to 250 nM; at FGFR1 it was 250 to 1000 nM; at FGFR3 (V555M), 250 to 1000 nM.
Consider `Cc1cn(-c2nc(Nc3cnn(C[C@H](C)O)c3)ncc2F)c2ncc(NC(=O)/C=C/CN3CCOCC3)cc12` [Example 198, (E)-N-[1-[5-fluoro-2-[[1-[(2S)-2-hydroxypropyl]pyrazol-4-yl]amino]pyrimidin-4-yl]-3-methyl-pyrrolo[2,3-b]pyridin-5-yl]-4-morpholino-but-2-enamide], for which the Kd at FGFR2 was in the range of 100 to 250 nM; at FGFR3, 100 to 250 nM; on FGFR1, 250 to 1000 nM; on FGFR3 (V555M) it was 250 to 1000 nM.
For the compound `Cc1cn(-c2nc(Nc3cnn(C)c3C)ncc2F)c2ncc(NC(=O)/C=C/CN(C)C)cc12` [Example 199, (E)-4-(dimethylamino)-N-[1-[2-[(1,5-dimethylpyrazol-4-yl)amino]-5-fluoro-pyrimidin-4-yl]-3-methyl-pyrrolo[2,3-b]pyridin-5-yl]but-2-enamide], the Kd on FGFR2 was 0.1 to 100 nM; at FGFR3 it was 0.1 to 100 nM; at FGFR1 it was 100 to 250 nM; at FGFR3 (V555M) it was 0.1 to 100 nM.
With `Cc1cnc(Nc2cn(C)nc2C)nc1-n1cc(C)c2cc(NC(=O)/C=C/CN(C)C)cnc21` [Example 200, (E)-4-(dimethylamino)-N-[1-[2-[(1,3-dimethylpyrazol-4-yl)amino]-5-methyl-pyrimidin-4-yl]-3-methyl-pyrrolo[2,3-b]pyridin-5-yl]but-2-enamide], the Kd on FGFR2, at FGFR3, at FGFR1 and on FGFR3 (V555M) was 0.1 to 100 nM throughout.
Consider `C=CC(=O)Nc1ccc2c(c1)c(C)cn2-c1nc(Nc2cn(CCOC)nc2C)ncc1F` [Example 202, N-[1-[5-fluoro-2-[[1-(2-methoxyethyl)-3-methyl-pyrazol-4-yl]amino]pyrimidin-4-yl]-3-methyl-indol-5-yl]prop-2-enamide], for which the Kd at FGFR2, on FGFR3, at FGFR1 and at FGFR3 (V555M) was 0.1 to 100 nM throughout.
Take `C=CC(=O)Nc1ccc2c(c1)c(C)cn2-c1nc(Nc2cnn(CCOC(C)C)c2)ncc1F` [Example 203, N-[1-[5-fluoro-2-[[1-(2-isopropoxyethyl)pyrazol-4-yl]amino]pyrimidin-4-yl]-3-methyl-indol-5-yl]prop-2-enamide]: the equilibrium dissociation constant (Kd) on FGFR2, on FGFR3, on FGFR1 and at FGFR3 (V555M) was 0.1 to 100 nM in each case.
Take `C=CC(=O)Nc1ccc2c(c1)c(C)cn2-c1nc(Nc2cnn(CC(C)OC)c2)ncc1F` (centres unmarked) [Example 204, N-[1-[5-fluoro-2-[[1-(2-methoxypropyl)pyrazol-4-yl]amino]pyrimidin-4-yl]-3-methyl-indol-5-yl]prop-2-enamide]: the equilibrium dissociation constant (Kd) at FGFR2, at FGFR3, on FGFR1 and on FGFR3 (V555M) was 0.1 to 100 nM throughout.
For `C=CC(=O)Nc1ccc2c(c1)c(C)cn2-c1nc(Nc2cnn(C[C@H](C)OC)c2)ncc1F` [Example 205], the dissociation constant Kd at FGFR2, on FGFR3, on FGFR1 and at FGFR3 (V555M) was 0.1 to 100 nM each time.
Take `C=CC(=O)Nc1ccc2c(c1)c(C)cn2-c1cc(Nc2cn(C)nc2C)nnc1C` [Example 209, N-[1-[6-[(1,3-dimethylpyrazol-4-yl)amino]-3-methyl-pyridazin-4-yl]-3-methyl-indol-5-yl]prop-2-enamide]: the equilibrium dissociation constant (Kd) on FGFR2, on FGFR3, on FGFR1 and at FGFR3 (V555M) was above 1000 nM throughout.
As for `C=CC(=O)Nc1ccc2c(c1)c(C)cn2-c1nc(Nc2cnn(C[C@@H](C)OC)c2)ncc1F` [Example 210, N-[1-[5-fluoro-2-[[1-[(2R)-2-methoxypropyl]pyrazol-4-yl]amino]pyrimidin-4-yl]-3-methyl-indol-5-yl]prop-2-enamide], the dissociation constant Kd at FGFR2, on FGFR3, on FGFR1 and on FGFR3 (V555M) was 0.1 to 100 nM throughout.
As for `Cc1nn(C)cc1Nc1ncc(F)c(-n2cc(C)c3cc(NC(=O)/C=C/CN4CCOCC4)cnc32)n1` [Example 213, (E)-N-[1-[2-[(1,3-dimethylpyrazol-4-yl)amino]-5-fluoro-pyrimidin-4-yl]-3-methyl-pyrrolo[2,3-b]pyridin-5-yl]-4-morpholino-but-2-enamide], the Kd at FGFR2, at FGFR3, on FGFR1 and at FGFR3 (V555M) was above 1000 nM in each case.
On to `C=CC(=O)Nc1ccc2c(c1)c(C)cn2-c1nc(Nc2cnn(C[C@@H](C)O)c2C)ncc1F` [Example 216, N-[1-[5-fluoro-2-[[1-[(2R)-2-hydroxypropyl]-5-methyl-pyrazol-4-yl]amino]pyrimidin-4-yl]-3-methyl-indol-5-yl]prop-2-enamide], for which the Kd at FGFR2, at FGFR3, at FGFR1 and on FGFR3 (V555M) was 0.1 to 100 nM in each case.
For `C=CC(=O)Nc1ccc2c(c1)c(C)cn2-c1ncnc(Nc2cnn(C)c2)n1` [Example 218, N-[3-methyl-1-[4-[(1-methylpyrazol-4-yl)amino]-1,3,5-triazin-2-yl]indol-5-yl]prop-2-enamide], the Kd on FGFR2, on FGFR3, at FGFR1 and at FGFR3 (V555M) was 0.1 to 100 nM throughout.
`C=CC(=O)Nc1ccc2c(c1)c(C)cn2-c1cc(Nc2cnn(C)c2)ncn1` [Example 219, N-[3-methyl-1-[6-[(1-methylpyrazol-4-yl)amino]pyrimidin-4-yl]indol-5-yl]prop-2-enamide]: the Kd on FGFR2 is 250 to 1000 nM; at FGFR3, 100 to 250 nM; on FGFR1, above 1000 nM; at FGFR3 (V555M) it was 250 to 1000 nM.
In the case of `C=CC(=O)Nc1ccc2c(c1)c(C)cn2-c1ncnc(Nc2cn(C)nc2C)n1` [Example 220, N-[1-[4-[(1,3-dimethylpyrazol-4-yl)amino]-1,3,5-triazin-2-yl]-3-methyl-indol-5-yl]prop-2-enamide], the dissociation constant Kd on FGFR2 was 250 to 1000 nM; at FGFR3, 100 to 250 nM; at FGFR1, 250 to 1000 nM; at FGFR3 (V555M), 100 to 250 nM.
